The record followed here is patent US8106004B2, “Methods of inhibiting tumor cell aggressiveness using the microenvironment of human embryonic stem cells” (Children's Memorial Hospital, priority 2006, dated 2012).

One series relates to C8161 cells. The series can be described thus: Soft agar / anchorage independent growth assay, C8161 cells. The series is classed as cell-based, human. Particulars: C8161 treated with anti-Nodal Morpholino. Here is the method: An in vitro colony forming assay was used to analyze colony-forming ability of poorly aggressive C81-61 cells, aggressive C8161 cells, C8161 cells treated with MO^Nodal and C8161 cells treated with MO^Nodal and rescued with recombinant Nodal (100 ng/mL). The assay was conducted using 50,000 cells suspended in 0.35% agarose in RPMI containing 10% serum, which were plated into 6-well dishes on 0.5% agar in the same medium. Colonies grew, and pictures were taken at day 7. After 2 weeks, colonies were stained with Crystal Violet and counted.
The derivation and phenotypic characteristics of the human melanoma cell lines have been previously described. Seftor, et. al., 2002, Clin. Experim. Metastas. 19:233-246; Seftor, et. al., 2005 Cancer Res. 65:10164-10169. The melanoma cell lines are maintained in RPMI 1640 medium (Invitrogen) supplemented with 10% fetal bovine serum (FBS, Gemini Bioproducts) and 0.1% gentamycin sulfate with the exception of C81-61 cells which are maintained in Ham's FIO medium supplemented with 15% FBS, 1X Mito+ (BD Bioscience) and gentamycin sulfate. Normal human melanocytes are purchased (Cascade Biologics) or isolated from neonatal foreskins. Seftor, et. al., 2005. A single cell suspension is prepared, added to plastic flasks for the adherence of melanocytes and the cells propagated in Medium 254 with Human Melanocyte Growth Supplement (Cascade Biologics) including, 100 units/ml penicillin, 100 μg/ml streptomycin, and 250 ng/mL amphotericin B. The human embryonic stem cell lines are cultured as previously described. Thomson, et. al., 1998, Science 282:1145-1147. Briefly, cells are grown in 6-well plates precoated with 0.1% porcine gelatin and containing 1.9×10^5 irradiated mouse embryonic fibroblasts (strain CF-1; ATCC) per well. The cells are maintained in medium containing DMEM/F12 (1:1), 20% knock-out serum replacement, non-essential minimal amino acids, L-glutamine (Invitrogen), […], and 4 ng/ml FGF-2 (R&D Systems), and are split with collagenase (1 mg/ml) before the colonies begin to overlap. The cultures are determined to be free of mycoplasma contamination using a PCR-based assay (Roche). The normal human neonatal epidermal melanocytes (HEMn-LP; Cascade Biologics, Portland Oreg.), myoepithelial cells (Hs 578 Bst; American Type Culture Collection (ATCC), Manassas, Va.) and primary mammary epithelial cells (HMEpC; Cell Applications Inc., San Diego Calif.) were maintained as per distributor instructions. Live umbilical cord blood stem cells (SC00125; New Jersey Stem Cell Resource at Coriell Institute for Medical Research) amniotic fluid derived stem cells (GM00473, GM00957A) and adult bone marrow derived mesenchymal stem cells (Stem Cell Technologies, Vancouver BC, Canada) were maintained under the recommended conditions. The HTR-8/SVneo is a well characterized immortalized human extravillous cytotrophoblast cell line, and was maintained as previously described Graham et al., 1993, Exp. Cell Res. 206:204-211. […] The expression vector for wild type Nodal was kindly provided by Dr. Daniel Constam (Swiss Institute for Experimental Cancer Research (ISREC), Epalinges, Switzerland) and was transfected into C81-61 cells as previously described. Le Good et al., 2005, Curr. Biol. 15:31-36. […]

The test system of series [1] is MDA-MB-231 breast carcinoma cells. Briefly: In vivo tumor cell proliferation-to-apoptosis ratio (Ki67/TUNEL), MDA-MB-231 derived tumors. Particulars: MDA-MB-231 treated before injection into mouse. From the text: (A) In vivo tumor formation in a mouse injected with MDA-MB-231 cells pre-exposed for 3 days to either a control matrix (Matrigel) or a matrix conditioned by hESCs (H9 CMTX) (n=10) (B) C81-61 cells, transfected with either an empty vector or a Nodal expression construct (n=5), and (C) MDA-MB-231 cells treated with either MO^Control or MO^Nodal (n=10). […] (D) The ratio of tumor cell proliferation to apoptosis for C8161 and MDA-MB-231 derived tumors, determined by immunohistochemical staining for Ki67 and terminal deoxynucleotidyl transferase biotin-dUTP nick-end labeling (TUNEL). Prior to injection into a mouse, C8161 and MDA-MB-231 cells were cultured for 3 days on control or hESC conditioned (H9 CMTX) matrices, or treated with MO^Nodal to knock down Nodal expression. […] (E) Immunohistochemical analysis of Ki67 expression (red/brown) and TUNEL staining in orthotopic melanoma (C8161) and breast carcinoma (MDA-MB-231) tumors. […] Proliferation is indicated by Ki67 staining and apoptotic nuclei were detected with confocal microscopy as red staining localized to the nuclei of apoptotic C8161 or MDA-MB-231 cells. […]
In order to establish a mechanism by which exposure to the hESC microenvironment abrogates tumorigenicity, the effects of this treatment on the in vivo tumor cell proliferation-to-apoptosis ratio were analyzed. […]

In the case of “MO^Nodal: FITC-conjugated anti-sense Morpholino to Nodal, 5′-AAGCAGCACCTCCAGCCCTTATATC-3′ [SEQ ID NO: 20] (all phosphorodiamidate morpholino (PMO); FITC conjugated, position not given here)”, the “reduction of colony formation” value in the series on C8161 cells (after 2 weeks, n=16, p<0.001) was determined as 57%. The “ability to undergo anchorage-independent growth” value in the series with C8161 cells (soft agar) is on record as “significantly diminished”. In addition, in series [1], the “ratio of proliferation to apoptosis” value is listed as “decreased”.
